From patent US6596730B1, “Phenyl urea and phenyl thiourea derivatives” (SmithKline Beecham p.l.c., priority 1999, dated 2003)
Structures can show the parent of a compound that is named as a salt.

How the values were obtained:
human orexin-1 receptor = biological target: T1, human orexin-1 receptor (Homo sapiens, UniProt O43613); assay: Determination of orexin-1 receptor antagonist activity (FLIPR calcium mobilisation, HEK293 cells, against 3.0 nM human orexin-A); assay type: cell-based; details: HEK293 cells expressing human orexin-1 receptor; Kb=IC50/(1+([3/EC50]); agonist 3.0 nM human orexin-A
T1 construct: expressed in transfected cells; host or cells: HEK293
T1 sequence (O43613 1-425): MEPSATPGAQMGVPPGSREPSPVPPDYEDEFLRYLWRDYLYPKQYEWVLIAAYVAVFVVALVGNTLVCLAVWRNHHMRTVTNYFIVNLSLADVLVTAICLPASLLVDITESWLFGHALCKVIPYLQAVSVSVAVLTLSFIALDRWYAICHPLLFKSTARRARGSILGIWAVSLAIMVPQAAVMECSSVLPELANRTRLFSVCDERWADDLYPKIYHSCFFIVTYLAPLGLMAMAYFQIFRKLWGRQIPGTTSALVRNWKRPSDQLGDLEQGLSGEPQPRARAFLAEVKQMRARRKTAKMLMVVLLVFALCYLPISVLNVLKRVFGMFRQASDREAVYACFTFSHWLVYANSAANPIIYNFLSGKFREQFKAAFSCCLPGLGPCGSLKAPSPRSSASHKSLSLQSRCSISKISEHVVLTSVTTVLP
Protocol: The orexin-1 receptor antagonist activity of the compounds of formula (I) was determined in accordance with the following experimental method.
HEK293 cells expressing the human orexin-1 receptor were grown in cell medium (MEM medium with Earl's salts) containing 2 mM L-Glutamine, 0.4 mg/mL G418 Sulfate from GIBCO BRL and 10% heat inactivated fetal calf serum from Gibco BRL. The cells were seeded at 20,000 cells/100 μl/well into 96-well black clear bottom sterile plates from Costar which had been pre-coated with 10 μg/well of poly-L-lysine from SIGMA. The seeded plates were incubated overnight at 37° C. in 5% CO2.
Agonists were prepared as 1 mM stocks in water:DMSO (1:1). […] Antagonist IC^50 values (the concentration of compound needed to inhibit 50% of the agonist response) were determined against 3.0 nM human orexin-A using 11×half log unit dilutions in Tyrode's buffer containing 10% DMSO and probenecid. On the day of assay 50 μl of cell medium containing probenecid (Sigma) and Fluo3AM (Texas Fluorescence Laboratories) was added (Quadra, Tomtec) to each well to give final concentrations of 2.5 mM and 4 μM, respectively. […] Cell plates were then transferred to the Fluorescent Imaging Plate Reader (FLIPR, Molecular Devices) instrument and maintained at 37° C. in humidified air. […] Agonists were added (by the FLIPR) after 20 sec (during continuous reading). […]

rat = assay: Rat sleep/EEG studies, central administration; assay type: in vivo; details: central administration at the onset of the normal sleep period
Excerpt: Therefore antagonists of its receptor may be useful in the treatment of sleep disorders including insomnia.

freely-feeding rats = details: central administration, 4 hour time period; cited from earlier work

Compound	Kb (human orexin-1 receptor) [nM]	effect on arousal / sleep (rat)	increase in food intake over control rats receiving vehicle (freely-feeding rats)
COc1ccc(NC(=O)Nc2cc(C)nc3cccnc23)cc1C(=O)NCC1CC1 [Example 2, N-Cyclopropylmethyl-2-methoxy-5-[3-(2-methyl-[1,5]-naphthyridin-4-yl)ureido]benzamide Hydrochloride]	< 31.6	–	–
orexin-A: ligand for the orexin-1 receptor, agonist of the orexin receptors; 33-residue peptide, sequence given in the 1st table (QPLPDCCRQKTCSCRLYELLHGAGNHAAGILTL; Orexin-A; UniProt O43612 34-66, looked up)	–	dose-related increase in arousal	approximately four-fold
